# Source: paper PMC6706711 (Iranian Journal of Pharmaceutical Research : IJPR, 2019)
# Read-outs that look alike come from different tables or passages of the source.
# How the values were obtained:
# MRSA = tested on: MRSA; parameters: method as in 2 sources, one per row (each row's own in cited_ref): ref Giachetto et al. ([32]) ||| ref Frymoyer et al. ([33]); settings: vancomycin 39.92mg·kg-1·d-1; MRSA strains with MIC 1 mg·L-1; ref Giachetto et al. ([32]); cited from earlier work
# [1] = Individual pharmacokinetic parameters by renal function subgroup, post hoc empirical Bayesian approach; settings: Total, N=155, mean ± SD
# Procedure: After fixing the PK parameters and variation in the final model, the PK parameters for individuals in three groups of different renal function were obtained by using post hoc empirical Bayesian approach. The mean values and standard deviation of the parameters in different groups were calculated.
# [2] = 1,000 bootstrap-resampled data sets
# [3] = cited from earlier work
# Text: In this study, the data of 155 children (aged from 1 month to 16 years) infected with MRS were used to establish a PPK model suitable for Chinese children. And then the PK parameters were obtained by Bayesian method. […] But the value of CL is faster than that reported by Marques-Minana et al.([23]) (0.066 L· ...
# [4] = Japanese pediatric patients, ref Yasuhara et al.([17])
# [5] = pediatric patients, ref Wrishko et al.(16)
compound,measurement,setting,value
"CN[C@H](CC(C)C)C(=O)N[C@H]1C(=O)N[C@@H](CC(N)=O)C(=O)N[C@H]2C(=O)N[C@H]3C(=O)N[C@H](C(=O)N[C@H](C(=O)O)c4cc(O)cc(O)c4-c4cc3ccc4O)[C@H](O)c3ccc(c(Cl)c3)Oc3cc2cc(c3O[C@@H]2O[C@H](CO)[C@@H](O)[C@H](O)[C@H]2O[C@H]2C[C@](C)(N)[C@H](O)[C@H](C)O2)Oc2ccc(cc2Cl)[C@H]1O [vancomycin, Vancomycin]",probability of AUC0-24h/MIC ≥ 400,MRSA,50%
same,CL,[1],2.22 ± 1.1 mL/min/kg
same,Vd,[1],0.65 ± 0.30 L/kg
same,ke,[1],0.218 ± 0.091 h⁻¹
same,"Exponent for Weight as covariate for CL, bootstrap median",[2],0.852
same,"Exponent for Weight as covariate for Vd, bootstrap median",[2],1.018
same,"Exponent for lnGFR as covariate for CL, bootstrap median",[2],2.378
same,"θVd (typical value for Weight=9 kg), bootstrap median",[2],5.39 L
same,CL,[3]; [4],1.98 mL/min/kg
same,Vd,[3]; [4],0.522 L/kg
same,CL,"[3]; neonates, ref Marques-Minana et al.([23])",1.1 mL/min/kg
same,CL,[3]; [5],2 mL/min/kg
same,Vd,[3]; [5],0.57 L/kg
